Source: paper PMC7914648 (Pharmaceuticals, 2021)

Assays:
[1] = test system: SHSY-5Y cells; test: MTS cell viability assay; assay type: cell-based
Procedure: SHSY-5Y cells (kindly provided by I. Szabò) were grown in Dulbecco’s Modified Eagle Medium (DMEM, Aurogene) supplemented with 10% (v/v) fetal bovine serum (FBS), 100 U/mL penicillin G, 0.1 mg/mL streptomycin and 5% glutamine.
SHSY-5Y cells were seeded (10,000 cells/well) in standard 96-well plates in DMEM (200 µL). After 24 h, the growth medium was replaced with a medium containing PAPTP and PAPTPL (from a stock solution in DMSO) at the desired final concentrations (20, 10 and 3 μM). DMEM without additions (CONTROL in Figure 2) was used as negative control. The final concentration of DMSO was 0.1% or lower in all cases (including control). After incubation for 24 h, 20 µL of CellTiter 96 AQUEOUS One solution (Promega, Italy) were added to each well and the plate was incubated at 37 °C in a humidified, 5% CO2 atmosphere for 4 h. Absorbance was measured at 490 nm to detect formazan formation.

[2] = Tissue distribution of An2-PAPTP and metabolites (liver, spleen, kidneys, heart) after i.v. injection; assay type: in vivo, mouse; conditions: mean ± SEM; for metabolite in liver, 15 min: n = 5; for metabolite in heart, 15 min / metabolite in kidneys, 15 min / metabolite in spleen, 15 min: N = 5
Excerpt: The total amount of An2-PAPTP and its metabolites, summarized in Table 3, is comprehensive of all the species having the characteristic psoralenic UV spectrum obtained by the overall extraction procedure (i.e., from organic solvent extraction and basic hydrolysis of the remaining pellet), and represents and underestimation of the real concentration in the tissue (see Section 4.7.3). This is because no recovery yield correction was applied, since it was impossible to identify most of the species extracted, and because PAPTPL extracted after high-pH hydrolysis of the pellet could come either from An2-PAPTP or from metabolites. For quantification in HPLC analysis, all the psoralenic species were assumed to have the same molar extinction coefficient as PAPTPL, an assumption justified by the near-identity observed for all the available psoralen-containing molecules.
(§1) The liver, spleen, kidneys, heart obtained from untreated mice were weighed and homogenized with PBS pH 7.4 (1 vol) with a potter. The pre-established amount of PAPTPL was added into tissue homogenates or blood and, after thorough vortexing, 5 vol of acetone were added and the sample was sonicated for 2 min. Subsequently, 5 vol of ACN containing 0.1% TFA were added and the sample was sonicated for 5 min. The sample was then centrifuged at 12,000× g for 7 min at 4 °C and the supernatant was collected, concentrated with a Hetovac VR-1, and analyzed via HPLC-UV.
as §1, with “Brain and liver” for “The liver, spleen, kidneys, heart”, “analyte” for “PAPTPL”, “homogenates” for “homogenates or blood”, “trifluoracetic acid (TFA)” for “TFA”
(§2) To quantify the amount of An2-PAPTP stuck in the tissue, the pellet remaining after the procedure described above was incubated with intermittent Vortexing at 60 °C for 3 h with PBS pH 12.5/ACN 1:1 and then centrifuged at 12,000× g for 7 min. HPLC-UV analysis of the supernatant, measuring PAPTPL hydrolyzed from the tissue, thus indirectly reflects the amount of An2-PAPTPL in the pellet (Scheme 3). Quantification was as described for PAPTPL.
(§3) A stock solution of the peptide-PAPTP conjugates was prepared in DMSO. TAT-PAPTP was administered at 8 and 5 μmol/kg bw and An2-PAPTP only at 5 μmol/kg bw. The calculated quantity of drugs was diluted from the stock solution in saline or mouse plasma to a final volume of 200 μL.

[3] = Preliminary brain levels after intraperitoneal An2-PAPTP; assay type: in vivo, mouse; conditions: An2-PAPTP 5 µmol/kg bw i.p. in DMSO; sacrifice at 20 min or 1, 2, 4 h; four mice
Procedure: In preliminary tests An2-PAPTP was administered at 5 µmol/kg bw by the intraperitoneal (i.p.) route, using dimethylsulfoxide (DMSO) as the vehicle. […] Many brain-penetrating peptides bind to biomolecules such as proteins and cell structures such as membranes. Furthermore, the absence of a flowing bloodstream at the injection site may cause a poorly soluble molecule to remain confined in the vicinity of the point of delivery. […] Collectively, these preliminary results led to the adoption of the intravenous route. An2-PAPTP (5 µmoles/kg bw, in plasma) was thus administered by tail vein injection to mice.

[4] = test system: cultured glioma and glioblastoma cell lines; conditions: cited from earlier work
Excerpt: (§4) In turn, this difficulty may be due at least in part precisely to the TPP group, since the parent compound, PAP-1, is effective against various Central Nervous System (CNS) disorders. This difficulty is not surprising if one compares the characteristics of ...

[5] = test system: orthotopic glioma; conditions: orthotopic murine model; cited from earlier work
Excerpt: as §4

[6] = Aqueous solubility determination; assay type: physicochemical; conditions: kinetic, 25 mM DMSO stock diluted to 100 μM (DMSO < 0.4%), supernatant HPLC/UV
Procedure: For TAT-PAPTP and An2-PAPTP, three distinct suspensions were prepared by diluting 25 mM stock solutions in DMSO to 100 μM, in 0.9% NaCl saline or water (DMSO < 0.4%). The suspensions were sonicated 5 min and immediately analyzed. The suspensions were then centrifuged at 12,000× g, 18 °C, for 1 and 2 h, and the supernatants were analyzed by HPLC/UV at the end of each centrifugation. An additional analysis was performed after 24 h of standing. The chromatographic peak areas were used to determine the concentration of the compound in the supernatants, based on calibration curves built using solutions in DMSO.

[7] = Stability in blood (hydrolysis, PAPTPL release); assay type: in vitro ADME; conditions: fresh heparinized C57BL mouse blood, 37 °C, 5 µM from 5 mM DMSO stock, HPLC-UV, % PAPTPL released relative to amount spiked, mean, n = 5 (An2-PAPTP) and 4 (TAT-PAPTP)
Procedure: C57BL mice were anesthetized and blood was withdrawn from the jugular vein and heparinized. Blood samples (1 mL) were spiked with compound (5 µM; dilution from a 5 mM stock solution in DMSO) and incubated at 37 °C for 4 h (the maximum period allowed by blood stability). Aliquots were taken after 10 min, 30 min, 1 h, 2 h, and 4 h before HPLC-UV analysis.
Each aliquot was treated as described above (Section 4.7.1). Compound stability in blood was expressed as % of PAPTPL released relative to the amount of An2-PAPTP and TAT-PAPTP spiked in the sample at time 0.

[8] = assay type: in vivo, mouse; conditions: TAT-PAPTP 5 µmoles/kg bw i.v. tail vein in mouse plasma, 2 C57BL mice sacrificed within 15 min; PAPTPL extracted after hydrolysis at pH 12.5, HPLC
Procedure: The brains of these mice were analyzed to evaluate the presence of the construct in the tissue (see Section 4.7). Each brain was homogenized and incubated with an equal volume of phosphate-buffered saline (PBS, pH 12.5) for 24 h; 10 volumes of ethyl acetate were then added. After vigorous mixing, the organic phase was collected, concentrated and analyzed via HPLC. This procedure allows hydrolysis of the carbamate bond, leading to the extraction of PAPTPL, which is considered proportional to the amount of peptide-PAPTP conjugate (or its fragments) present in the brain.
The protocol set up for PAPTPL recovery turned out to be inefficient for the quantification of TAT-PAPTP. An alternative protocol was thus developed. Tissue obtained from untreated mice was weighed and homogenized with PBS pH 7.4 (1 vol) with a potter. The pre-established amount of analyte was added into tissue homogenates and, after thorough vortexing, 1 vol of PBS pH 12.5 was added and the sample was incubated with intermittent vortexing at 60 °C for 24 h. This step is required to allow the hydrolysis of the carbamate bond connecting the peptide and PAPTPL. 10 vol of ethyl acetate were added and, after vortexing and sonication for 2 min, the sample was centrifuged at 12,000× g, 7 min, Room Temperature. The organic phase was collected and concentrated with Hetovac VR-1. ACN was added to the concentrated sample to allow the resuspension of PAPTPL and analyzed via HPLC. Quantification was as described for PAPTPL.
as §1, with “Brain and liver” for “The liver, spleen, kidneys, heart”, “analyte” for “PAPTPL”, “homogenates” for “homogenates or blood”, “trifluoracetic acid (TFA)” for “TFA”
as §2, §3

[9] = test system: C57BL mice; test: Observed toxicity after tail vein injection; assay type: in vivo; conditions: 5 µmoles/kg bw by tail vein injection in mouse plasma, no proper toxicological study
Procedure: TAT-PAPTP (5 µmoles/kg bw) was administered by tail vein injection to 2 C57BL mice. […] The observed toxicity was not due to the use of plasma, since mice were not made ill by the administration of PAPTP or An2-PAPTP in the same vehicle (see below, Section 2.7).
as §3

[10] = test system: mouse Red Blood Cells; test: Haemolysis assay; assay type: cell-based; conditions: 5 × 10^7 mouse erythrocytes in 1 mL PBS pH 7.4, 2, 1 or 0.5 µM, 15 min, absorbance 540 nm, n = 3
Procedure: Haemolysis studies were conducted as described in [72]. Briefly, freshly withdrawn blood samples were centrifuged at 1000× g for 10 min to obtain erythrocytes; the pellet was then washed thrice with sterile PBS (pH 7.4). Erythrocytes (5 × 10^7 cells in 1 mL of PBS for each experimental condition) were incubated with 2, 1 or 0.5 µM An2-PAPTP or TAT-PAPTP for 15 min. The samples were then centrifuged and absorbance (Abs) of the supernatant was measured at 540 nm. Triton X-100 1% and PBS were used as positive and negative control, respectively.
The percentage of haemolysis was calculated with the following equation:% haemolysis = [(Abssample − AbsPBS)/AbsTriton X-100 − AbsPBS)] × 100

[11] = after An2-PAPTP 5 µmoles/kg bw i.v.

## O=C([O-])C(F)(F)F.O=c1ccc2c(OCCCCOc3ccc(CCC[P+](c4ccccc4)(c4ccccc4)c4ccc(OCCCc5ccc(O)cc5)cc4)cc3)c3ccoc3cc2o1 [PAPTPL, (4-(3-(4-hydroxyphenyl)propoxy)phenyl)(3-(4-(4-((7-oxo-7H-furo[3,2-g]chromen-4-yl)oxy)butoxy)phenyl)propyl)diphenylphosphonium 2,2,2-trifluoroacetate]
[1]; 24 h, MTS, one-way ANOVA
  difference in cytotoxic effect versus PAPTP: no statistically significant difference
[1]; 24 h treatment, 20, 10 and 3 μM, absorbance 490 nm, n = 3
  cytotoxic effect (cell viability, MTS reduction assay): marked cytotoxicity
[2]; after An2-PAPTP 5 µmoles/kg bw i.v. in mouse plasma, HPLC-UV
  metabolite in liver, 15 min: 1.5 ± 0.6 nmol/g fresh tissue
[2]; [11]
  metabolite in heart, 15 min: 0.12 ± 0.06 nmol/g fresh tissue
  metabolite in kidneys, 15 min: 0.7 ± 0.1 nmol/g fresh tissue
  metabolite in liver, 15 min: 1.2 ± 0.5 % administered dose
  metabolite in spleen, 15 min: 0.9 ± 0.2 nmol/g fresh tissue
[2]; after An2-PAPTP i.v.
  metabolite in heart, 15 min: 0.013 ± 0.007 % administered dose
  metabolite in kidneys, 15 min: 0.1 ± 0.1 % administered dose
  metabolite in spleen, 15 min: 0.05 ± 0.02 % administered dose
[3]
  detection in brain after i.p. administration: no An2-PAPTP or PAPTPL could be detected

## O=C(NCCC[P+](c1ccccc1)(c1ccccc1)c1ccccc1)Oc1ccc(OCCCCOc2c3ccoc3cc3oc(=O)ccc23)cc1.[I-] [PCARBTP, (3-(((4-(4-((7-oxo-7H-furo[3,2-g]chromen-4-yl)oxy)butoxy)phenoxy)carbonyl)amino)propyl)triphenylphosphonium iodide]
[4]
  killing of cultured glioma and glioblastoma cell lines: efficiently killed
[5]
  effect on tumor growth: did not affect tumor growth

## CC[C@H](C)[C@H](NC(=O)Oc1ccc(CCCOc2ccc([P+](CCCc3ccc(OCCCCOc4c5ccoc5cc5oc(=O)ccc45)cc3)(c3ccccc3)c3ccccc3)cc2)cc1)C(=O)NCC(=O)N[C@@H](CCCNC(=N)N)C(=O)N[C@@H](CCCCN)C(=O)N[C@@H](CCCCN)C(=O)N[C@@H](CCCNC(=N)N)C(=O)N[C@@H](CCCNC(=N)N)C(=O)N[C@@H](CCC(N)=O)C(=O)N[C@@H](CCCNC(=N)N)C(=O)N[C@@H](CCCNC(=N)N)C(=O)N[C@@H](CCCNC(=N)N)C(=O)N1CCC[C@H]1C(=O)N1CCC[C@H]1C(=O)N[C@@H](CCC(N)=O)C(=O)NCC(=O)O [TAT-PAPTP]
[6]; 0.9% NaCl saline, sonicated 5 min, centrifuged 12,000 × g 18 °C 1 and 2 h, detection limit 0.1 µM
  solubility in 0.9% NaCl saline: > 100 µM
[6]; water, sonicated, centrifuged 12,000 × g 18 °C
  solubility in water: > 100 µM
[7]
  hydrolyzed in mouse blood over 4 h (PAPTPL released): more stable
[8]
  construct level in brain: 0.2–0.3 nmoles/g fresh tissue
[9]
  observed toxicity in mice: evident signs of illness (respiratory difficulties, trailing limbs, swelling of the paws)
[9]; listed as TAT-PAPT
  observed toxicity in mice: more toxic than its individual components (TAT and PAPTP) as well as than An2-PAPTP
[10]
  haemolysis (release of haemoglobin): did
